Each structure is given as a SMILES string. Like-named read-outs stand apart in the source and are kept apart here. Bounds are passed on as bounds.

Results on 21 molecules are retold here after patent EP4215522A1, “DERIVATIVES OF 4-CHROMONE AS INHIBITORS OF THE RDRP POLYMERASE OF SARS-COV-2 VIRUS AND METHOD FOR THE PREPARATION THEREOF” (priority 2022, dated 2023).

The target of series [1] is RNA-dependent RNA polymerase (SARS-CoV-2) (Severe acute respiratory syndrome coronavirus 2, UniProt P0DTD1). As to the kind of experiment: in vitro enzymatic assay of RdRp activity (AlphaScreen detection). The format is biochemical.
The next series can be described thus: Kinetic solubility. The format is physicochemical. As for the experimental part: (§1) The solubility and stability of some compounds of the invention and known compounds were evaluated.
A further series in a line: Plasma stability in mice. The format is in vitro ADME. The note with it: mouse plasma. As for the experimental part: as §1
Series [2] is described as follows: Microsomal stability in mice. The format is in vitro ADME. The note with it: mouse microsomes. The method, then: as §1
Where [3] appears, read: compound at 25 µM, read-out: % inhib. (25 µM).
Where [4] appears, read: compound at 100 µM, read-out: % inhib. (100 µM).
The mark [5] stands for this setting: RdRp reaction 37°C, 60 minutes, duplicate, 30 minutes preincubation, 1% DMSO.

Take `CCCCC(c1ccc(O)c(O)c1)c1cc(=O)c2c(O)cccc2o1` (stereo not shown) [(13c), 2-(1-(3,4-dihydroxyphenyl)pentyl)-5-hydroxy-4H-chromen-4-one]: in series [1] (setting [3]), the inhibition at 25 µM was 16%. In series [1] (setting [4]), the inhibition at 100 µM was 37%.
As to `O=c1cc(C(CCCC(F)(F)F)c2ccc(O)c(O)c2)oc2cccc(O)c12` (stereo not shown) [(13d), 2-(1-(3,4-dihydroxyphenyl)-5,5,5-trifluoropentyl)-5-hydroxy-4H-chromen-4-one], the “IC50 (µM)” value in series [1] (setting [5]) is given as “NO inhibition”. In addition, the inhibition at 25 µM in series [1] (setting [3]) was 8%. Also, in series [1] (setting [4]), the inhibition at 100 µM came to 10%.
For `CC(c1ccc(O)c(O)c1)c1cc(=O)c2c(O)cccc2o1` (stereo not shown) [(13b), 2-(1-(3,4-dihydroxyphenyl)ethyl)-5-hydroxy-4H-chromen-4-one], the IC50 (in general, the concentration needed to halve the response being measured) in series [1] (setting [5]) amounted to 4.1 ± 1.4 µM. Further, in series [1] (setting [3]), the inhibition at 25 µM worked out at 65%. Moreover, the inhibition at 100 µM in series [1] (setting [4]) was 100%. The “Kinetic solubility Sk” value in “Kinetic solubility” is on record as 165 µM. Besides, the “Plasma stability in mice t1/2” value in the series “Plasma stability in mice” was above 2 h. Also, the “Microsomal stability in mice t1/2” value in series [2] was above 1 h.
As to `O=C(Nc1ccc(O)c(O)c1)c1cc(=O)c2c(O)cccc2o1` [(24a), N-(3,4-dihydroxyphenyl)-5-hydroxy-4-oxo-4H-chromen-2-carboxamide], in series [1] (setting [5]), the IC50 came out at 7.1 ± 0.8 µM. The inhibition at 25 µM in series [1] (setting [3]) was 80%. Moreover, the inhibition at 100 µM in series [1] (setting [4]) came out at 100%. Further, in the series “Kinetic solubility”, the “Kinetic solubility Sk” value came to 65 µM. Besides, the “Plasma stability in mice t1/2” value in the series “Plasma stability in mice” was found to be 1.38 ± 0.217 h. Moreover, the “Microsomal stability in mice t1/2” value in series [2] is 1 h.
`O=C(OCCc1ccc(O)c(O)c1)c1cc(=O)c2c(O)cccc2o1` [(24c), 3,4-dihydroxyphenethyl-5-hydroxy-4-oxo-4H-chromen-2-carboxylate] displayed an IC50 in series [1] (setting [5]) of 44.1 ± 1.1 µM. Further, the inhibition at 25 µM in series [1] (setting [3]) was 36%. In series [1] (setting [4]), the inhibition at 100 µM turned out to be 72%.
With `O=c1cc(-c2ccc3c(c2)OC(F)(F)O3)oc2cc(O)cc(O)c12` [reference compound], in series [1] (read-out: % inhibition 25 µM), the inhibition at 25 µM worked out at 0%. In series [1] (read-out: % inhibition 100 µM), the inhibition at 100 µM is 51%.
As for `O=c1cc(-c2ccc(O)c(O)c2)oc2cc(O)cc(O)c12` [luteolin, reference compound], the “Kinetic solubility Sk” value in “Kinetic solubility” stood at 21 µM. For the same molecule, in the series “Plasma stability in mice”, the “Plasma stability in mice t1/2” value is above 2 h. Also, in series [2], the “Microsomal stability in mice t1/2” value is above 1 h.
`O=c1cc(Cc2ccc(O)c(O)c2)oc2cccc(O)c12` [(13a), 2-(3,4-dihydroxybenzyl)-5-hydroxy-4H-chromen-4-one] registered an IC50 in series [1] (setting [5]) of 8.5 ± 0.7 µM. In addition, the inhibition at 25 µM in series [1] (setting [3]) amounted to 78%. The inhibition at 100 µM in series [1] (setting [4]) is 99%. The “Kinetic solubility Sk” value in “Kinetic solubility” was 63 µM. Also, the “Plasma stability in mice t1/2” value in “Plasma stability in mice” was above 2 h. Moreover, the “Microsomal stability in mice t1/2” value in series [2] was above 1 h.
In series [1] (setting [5]), `O=c1c(OCCO)c(-c2ccc(O)c(O)c2)oc2cc(O)cc(O)c12` [(9b), 2-(3,4-dihydroxyphenyl)-5,7-dihydroxy-3-(2-hydroxyethoxy)-4H-chromen-4-one] came in with an IC50 of 6.1 ± 1 µM. In series [1] (setting [3]), the inhibition at 25 µM was found to be 83%. Also, the inhibition at 100 µM in series [1] (setting [4]) stood at 100%. Also, in “Kinetic solubility”, the “Kinetic solubility Sk” value came out at 167 µM. Moreover, the “Plasma stability in mice t1/2” value in “Plasma stability in mice” was above 2 h. In series [2], the “Microsomal stability in mice t1/2” value is above 1 h.
With `O=C(Oc1ccc(O)c(O)c1)c1cc(=O)c2c(O)cccc2o1` [(24b), 3,4-dihydroxyphenyl-5-hydroxy-4-oxo-4H-chromen-2-carboxylate], the IC50 in series [1] (setting [5]) was found to be 2 ± 1 µM. Further, the inhibition at 25 µM in series [1] (setting [3]) was determined as 95%. Moreover, the inhibition at 100 µM in series [1] (setting [4]) stood at 94%. The “Kinetic solubility Sk” value in “Kinetic solubility” is listed as below 1 µM.
Consider `O=c1c(OCCCO)c(-c2ccc(O)c(O)c2)oc2cc(O)cc(O)c12` [(9c), 2-(3,4-dihydroxyphenyl)-5,7-dihydroxy-3-(3-hydroxypropoxy)-4H-chromen-4-one], for which the IC50 in series [1] (setting [5]) stood at 5.6 ± 0.1 µM. Besides, the inhibition at 25 µM in series [1] (setting [3]) was 71%. Besides, in series [1] (setting [4]), the inhibition at 100 µM turned out to be 95%. Besides, the “Kinetic solubility Sk” value in the series “Kinetic solubility” turned out to be 231 µM. The “Plasma stability in mice t1/2” value in “Plasma stability in mice” was determined as 1.5 h. Also, in series [2], the “Microsomal stability in mice t1/2” value was 1 h.
Consider `O=c1c(O)c(-c2ccc(O)c(O)c2)oc2cc(O)cc(O)c12` [quercetin, reference compound], for which the “Kinetic solubility Sk” value in “Kinetic solubility” stood at 16 µM. Further, in “Plasma stability in mice”, the “Plasma stability in mice t1/2” value amounted to 0.12 h. The “Microsomal stability in mice t1/2” value in series [2] is above 1 h.
Regarding `COc1cccc2oc(-c3ccc(O)cc3C)cc(=O)c12` [reference compound], the inhibition at 25 µM in series [1] (read-out: % inhibition 25 µM) worked out at 3%. For the same molecule, the inhibition at 100 µM in series [1] (read-out: % inhibition 100 µM) was found to be 34%.
In series [1] (setting [5]), `CCCCOc1c(-c2ccc(O)c(O)c2)oc2cc(O)cc(O)c2c1=O` [(9a), 3-butoxy-2-(3,4-dihydroxyphenyl)-5,7-dihydroxy-4H-chromen-4-one] came in with an IC50 of 5.3 ± 1 µM. Further, the inhibition at 25 µM in series [1] (setting [3]) is 52%. In addition, the inhibition at 100 µM in series [1] (setting [4]) came out at 98%. In “Kinetic solubility”, the “Kinetic solubility Sk” value was 156 µM. Further, the “Plasma stability in mice t1/2” value in the series “Plasma stability in mice” is above 2 h. Further, in series [2], the “Microsomal stability in mice t1/2” value was above 1 h.
In series [1] (setting [5]), `O=c1cc(CCc2ccc(O)c(O)c2)oc2cccc(O)c12` [(20), 2-(3,4-dihydroxyphenethyl)-5-hydroxy-4H-chromen-4-one] came in with an IC50 of 5.8 ± 0.7 µM. The inhibition at 25 µM in series [1] (setting [3]) was found to be 80%. Besides, in series [1] (setting [4]), the inhibition at 100 µM came out at 97%. For the same molecule, the “Kinetic solubility Sk” value in the series “Kinetic solubility” turned out to be 67 µM. The “Plasma stability in mice t1/2” value in the series “Plasma stability in mice” is above 2 h. Besides, in series [2], the “Microsomal stability in mice t1/2” value is above 1 h.
In series [1] (setting [5]), `Cc1c(-c2ccc(O)c(O)c2)oc2cc(O)cc(O)c2c1=O` [(5a), 2-(3,4-dihydroxyphenyl)-5,7-dihydroxy-3-methyl-4H-chromen-4-one] came in with an IC50 of 4.3 ± 1.1 µM. Also, the inhibition at 25 µM in series [1] (setting [3]) is 94%. For the same molecule, in series [1] (setting [4]), the inhibition at 100 µM is 99%. Moreover, the “Kinetic solubility Sk” value in the series “Kinetic solubility” was determined as 32 µM.
As for `O=C(NCCNC(=S)Nc1ccc(O)c(O)c1)c1cc(=O)c2c(O)cccc2o1` [(31), N-(2-(3-(3,4-dihydroxyphenyl)thiourea)ethyl)-5-hydroxy-4-oxo-4H-chromen-2-carboxamide], the IC50 in series [1] (setting [5]) is 3.4 ± 1.2 µM. Besides, the inhibition at 25 µM in series [1] (setting [3]) amounted to 86%. The inhibition at 100 µM in series [1] (setting [4]) turned out to be 94%. In addition, the “Kinetic solubility Sk” value in the series “Kinetic solubility” is listed as below 1 µM.
As to `O=C(NCCNC(=O)c1cc(=O)c2c(O)cccc2o1)c1ccc(O)c(O)c1` [(28), N-(2-(3,4-dihydroxybenzamide)ethyl)-5-hydroxy-4-oxo-4H-chromen-2-carboxamide], inhibition in series [1] (setting [5]) was half-maximal at 15.9 ± 1.1 µM (IC50). For the same molecule, in series [1] (setting [3]), the inhibition at 25 µM turned out to be 79%. In addition, the inhibition at 100 µM in series [1] (setting [4]) is 100%.
On to `O=c1cc(-c2ccc(O)c(O)c2)oc2cc(F)cc(O)c12` [reference compound], for which the inhibition at 25 µM in series [1] (read-out: % inhibition 25 µM) was 0%. In series [1] (read-out: % inhibition 100 µM), the inhibition at 100 µM was found to be 25%.
`O=c1cc(/C=C/c2ccc(O)c(O)c2)oc2cccc(O)c12` [(18), (E)-2-(3,4-dihydroxystyryl)-5-hydroxy-4H-chromen-4-one] had an IC50 in series [1] (setting [5]) of 7 ± 1.2 µM. The inhibition at 25 µM in series [1] (setting [3]) worked out at 54%. Also, in series [1] (setting [4]), the inhibition at 100 µM amounted to 94%. The “Kinetic solubility Sk” value in “Kinetic solubility” is on record as below 1 µM.
For `CCCc1c(-c2ccc(O)c(O)c2)oc2cc(O)cc(O)c2c1=O` [(5b), 2-(3,4-dihydroxyphenyl)-5,7-dihydroxy-3-propyl-4H-chromen-4-one] the same measures were 8.8 ± 0.7 µM, 72%, 98% and 13 µM.
